From article PMC6009956, “Design, synthesis and biological activity of N^4-phenylsubstituted-7H-pyrrolo[2,3-d]pyrimidin-4-amines as dual inhibitors of aurora kinase A and epidermal growth factor receptor kinase” (Journal of Enzyme Inhibition and Medicinal Chemistry, 2017)
Read-outs that look alike come from different tables or passages of the source. One block for each molecule: values may come before it.

What was measured:
EGFR = EGFR (Homo sapiens, UniProt P00533); assay: ADP-Glo kinase assay, EGFR; format: biochemical; parameters: purchased BPS Bioscience (assay run externally by the vendor)
aurora A kinase (AURKA) = biological target: T1, aurora A kinase (AURKA) (Homo sapiens, UniProt O14965); assay: ADP-Glo kinase assay, Aurora A; format: biochemical
T1 construct: purchased BPS Bioscience (assay run externally by the vendor)
T1 sequence (O14965 1-403): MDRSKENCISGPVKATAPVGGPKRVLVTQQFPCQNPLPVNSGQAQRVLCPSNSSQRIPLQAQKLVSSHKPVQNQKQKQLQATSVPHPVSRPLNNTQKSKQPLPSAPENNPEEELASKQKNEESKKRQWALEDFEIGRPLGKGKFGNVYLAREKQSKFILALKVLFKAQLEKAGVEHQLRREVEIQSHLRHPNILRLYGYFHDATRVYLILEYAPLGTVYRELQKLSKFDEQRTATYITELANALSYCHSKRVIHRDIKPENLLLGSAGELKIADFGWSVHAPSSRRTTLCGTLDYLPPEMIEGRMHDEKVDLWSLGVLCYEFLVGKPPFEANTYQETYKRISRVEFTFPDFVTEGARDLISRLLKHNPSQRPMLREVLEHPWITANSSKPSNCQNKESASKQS

[1] = 10 µM ATP, triplicate, read-out: EGFR IC50 ± SD
[2] = 10 µM ATP/0.2 mg/ml Poly-Glu-Tyr, read-out: EGFR IC50 (dose-response curve, supplement)
[3] = 10 µM ATP, triplicate, read-out: AURKA IC50 ± SD
[4] = 10 µM ATP/0.2 mg/ml Kemptide, read-out: Aurora A IC50 (dose-response curve, supplement)

Chain of EGFR (P00533 25-1210): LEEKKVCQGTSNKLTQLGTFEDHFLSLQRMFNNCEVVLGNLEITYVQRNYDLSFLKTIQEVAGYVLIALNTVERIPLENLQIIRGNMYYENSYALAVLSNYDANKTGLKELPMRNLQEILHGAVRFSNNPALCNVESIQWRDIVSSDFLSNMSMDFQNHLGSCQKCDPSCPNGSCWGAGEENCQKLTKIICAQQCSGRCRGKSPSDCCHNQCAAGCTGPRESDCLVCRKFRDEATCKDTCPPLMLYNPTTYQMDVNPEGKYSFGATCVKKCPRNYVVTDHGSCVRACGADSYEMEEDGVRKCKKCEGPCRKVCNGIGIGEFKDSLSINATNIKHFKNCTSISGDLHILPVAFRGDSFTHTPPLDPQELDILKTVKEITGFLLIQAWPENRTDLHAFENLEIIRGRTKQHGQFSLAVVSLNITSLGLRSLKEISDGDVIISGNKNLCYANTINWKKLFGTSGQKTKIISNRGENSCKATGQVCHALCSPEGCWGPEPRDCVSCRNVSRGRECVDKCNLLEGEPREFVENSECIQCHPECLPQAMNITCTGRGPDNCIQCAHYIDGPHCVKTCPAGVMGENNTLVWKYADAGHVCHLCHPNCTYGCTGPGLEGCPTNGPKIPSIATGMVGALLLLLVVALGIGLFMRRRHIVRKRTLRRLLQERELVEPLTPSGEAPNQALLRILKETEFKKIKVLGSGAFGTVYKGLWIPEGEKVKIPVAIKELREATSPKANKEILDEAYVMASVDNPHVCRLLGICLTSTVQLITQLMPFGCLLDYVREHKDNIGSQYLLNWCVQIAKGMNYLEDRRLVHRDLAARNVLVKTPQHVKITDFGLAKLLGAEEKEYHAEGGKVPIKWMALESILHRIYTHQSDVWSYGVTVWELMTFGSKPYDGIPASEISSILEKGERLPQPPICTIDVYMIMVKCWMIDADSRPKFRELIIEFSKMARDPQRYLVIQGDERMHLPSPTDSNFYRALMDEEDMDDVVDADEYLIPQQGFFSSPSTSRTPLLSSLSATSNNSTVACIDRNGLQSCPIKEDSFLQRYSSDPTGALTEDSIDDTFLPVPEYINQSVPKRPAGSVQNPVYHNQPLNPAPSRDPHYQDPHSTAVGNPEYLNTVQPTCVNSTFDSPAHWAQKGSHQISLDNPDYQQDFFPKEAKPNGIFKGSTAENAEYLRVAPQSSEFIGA

IC50 (EGFR; [1]): 0.0633 ± 0.00458 µM
IC50 (EGFR; [2]): 0.0633 µM
EGFR % Activity Set1 (EGFR; Log[nM] 0): 96%
EGFR % Activity Set2 (EGFR; Log[nM] 0): 92%
EGFR % Activity Set3 (EGFR; Log[nM] 0): 95%
EGFR % Activity Set1 (EGFR; Log[nM] 1.0): 88%
EGFR % Activity Set2 (EGFR; Log[nM] 1.0): 83%
EGFR % Activity Set3 (EGFR; Log[nM] 1.0): 88%
EGFR % Activity Set1 (EGFR; Log[nM] 1.5): 66%
EGFR % Activity Set2 (EGFR; Log[nM] 1.5): 62%
EGFR % Activity Set3 (EGFR; Log[nM] 1.5): 65%
EGFR % Activity Set1 (EGFR; Log[nM] 2.0): 42%
EGFR % Activity Set2 (EGFR; Log[nM] 2.0): 38%
EGFR % Activity Set3 (EGFR; Log[nM] 2.0): 43%
EGFR % Activity Set1 (EGFR; Log[nM] 2.5): 16%
EGFR % Activity Set2 (EGFR; Log[nM] 2.5): 16%
EGFR % Activity Set3 (EGFR; Log[nM] 2.5): 16%
EGFR % Activity Set1 (EGFR; Log[nM] 3.0): 8%
EGFR % Activity Set2 (EGFR; Log[nM] 3.0): 8%
EGFR % Activity Set3 (EGFR; Log[nM] 3.0): 9%
EGFR % Activity Set1 (EGFR; Log[nM] 3.5): 3%
EGFR % Activity Set2 (EGFR; Log[nM] 3.5): 3%
EGFR % Activity Set3 (EGFR; Log[nM] 3.5): 3%
EGFR % Activity Set1 (EGFR; Log[nM] 4.0): 2%
EGFR % Activity Set2 (EGFR; Log[nM] 4.0): 2%
EGFR % Activity Set3 (EGFR; Log[nM] 4.0): 2%
EGFR % Activity Set1 (EGFR; Log[nM] 4.5): 2%
EGFR % Activity Set2 (EGFR; Log[nM] 4.5): 2%
EGFR % Activity Set3 (EGFR; Log[nM] 4.5): 2%
EGFR % Activity Set1 (EGFR; Log[nM] 5.0): 2%
EGFR % Activity Set2 (EGFR; Log[nM] 5.0): 3%
EGFR % Activity Set3 (EGFR; Log[nM] 5.0): 2%
Fold better than compound 17 against AURKA (aurora A kinase (AURKA)): approximately two-fold
IC50 (aurora A kinase (AURKA); [3]): 4.95 ± 0.69 µM
IC50 (aurora A kinase (AURKA); [4]): 5 µM
Aurora A % Activity Set1 (aurora A kinase (AURKA); Log[nM] 0): 110%
Aurora A % Activity Set2 (aurora A kinase (AURKA); Log[nM] 0): 93%
Aurora A % Activity Set3 (aurora A kinase (AURKA); Log[nM] 0): 104%
Aurora A % Activity Set1 (aurora A kinase (AURKA); Log[nM] 1.0): 103%
Aurora A % Activity Set2 (aurora A kinase (AURKA); Log[nM] 1.0): 93%
Aurora A % Activity Set3 (aurora A kinase (AURKA); Log[nM] 1.0): 101%
Aurora A % Activity Set1 (aurora A kinase (AURKA); Log[nM] 1.5): 105%
Aurora A % Activity Set2 (aurora A kinase (AURKA); Log[nM] 1.5): 96%
Aurora A % Activity Set3 (aurora A kinase (AURKA); Log[nM] 1.5): 105%
Aurora A % Activity Set1 (aurora A kinase (AURKA); Log[nM] 2.0): 103%
Aurora A % Activity Set2 (aurora A kinase (AURKA); Log[nM] 2.0): 93%
Aurora A % Activity Set3 (aurora A kinase (AURKA); Log[nM] 2.0): 100%
Aurora A % Activity Set1 (aurora A kinase (AURKA); Log[nM] 2.5): 90%
Aurora A % Activity Set2 (aurora A kinase (AURKA); Log[nM] 2.5): 86%
Aurora A % Activity Set3 (aurora A kinase (AURKA); Log[nM] 2.5): 93%
Aurora A % Activity Set1 (aurora A kinase (AURKA); Log[nM] 3.0): 77%
Aurora A % Activity Set2 (aurora A kinase (AURKA); Log[nM] 3.0): 73%
Aurora A % Activity Set3 (aurora A kinase (AURKA); Log[nM] 3.0): 85%
Aurora A % Activity Set1 (aurora A kinase (AURKA); Log[nM] 3.5): 51%
Aurora A % Activity Set2 (aurora A kinase (AURKA); Log[nM] 3.5): 45%
Aurora A % Activity Set3 (aurora A kinase (AURKA); Log[nM] 3.5): 47%
Aurora A % Activity Set1 (aurora A kinase (AURKA); Log[nM] 4.0): 32%
Aurora A % Activity Set2 (aurora A kinase (AURKA); Log[nM] 4.0): 30%
Aurora A % Activity Set3 (aurora A kinase (AURKA); Log[nM] 4.0): 31%
Aurora A % Activity Set1 (aurora A kinase (AURKA); Log[nM] 4.5): 29%
Aurora A % Activity Set2 (aurora A kinase (AURKA); Log[nM] 4.5): 26%
Aurora A % Activity Set3 (aurora A kinase (AURKA); Log[nM] 4.5): 26%
Aurora A % Activity Set1 (aurora A kinase (AURKA); Log[nM] 5.0): 30%
Aurora A % Activity Set2 (aurora A kinase (AURKA); Log[nM] 5.0): 26%
Aurora A % Activity Set3 (aurora A kinase (AURKA); Log[nM] 5.0): 26%
Compound: c1ccc(Cc2ccc(Nc3ncnc4[nH]ccc34)cc2)cc1 [Compound 18, N^4-(4-benzylphenyl)-7H-pyrrolo[2,3-d]pyrimidin-4-amine]

IC50 (EGFR; [1]): 0.02 ± 0.0036 µM
IC50 (EGFR; [2]): 0.0199 µM
EGFR % Activity Set1 (EGFR; Log[nM] 0): 77%
EGFR % Activity Set2 (EGFR; Log[nM] 0): 88%
EGFR % Activity Set3 (EGFR; Log[nM] 0): 76%
EGFR % Activity Set1 (EGFR; Log[nM] 1.0): 69%
EGFR % Activity Set2 (EGFR; Log[nM] 1.0): 75%
EGFR % Activity Set3 (EGFR; Log[nM] 1.0): 66%
EGFR % Activity Set1 (EGFR; Log[nM] 1.5): 34%
EGFR % Activity Set2 (EGFR; Log[nM] 1.5): 39%
EGFR % Activity Set3 (EGFR; Log[nM] 1.5): 33%
EGFR % Activity Set1 (EGFR; Log[nM] 2.0): 19%
EGFR % Activity Set2 (EGFR; Log[nM] 2.0): 19%
EGFR % Activity Set3 (EGFR; Log[nM] 2.0): 16%
EGFR % Activity Set1 (EGFR; Log[nM] 2.5): 10%
EGFR % Activity Set2 (EGFR; Log[nM] 2.5): 9%
EGFR % Activity Set3 (EGFR; Log[nM] 2.5): 8%
EGFR % Activity Set1 (EGFR; Log[nM] 3.0): 5%
EGFR % Activity Set2 (EGFR; Log[nM] 3.0): 5%
EGFR % Activity Set3 (EGFR; Log[nM] 3.0): 5%
EGFR % Activity Set1 (EGFR; Log[nM] 3.5): 2%
EGFR % Activity Set2 (EGFR; Log[nM] 3.5): 9%
EGFR % Activity Set3 (EGFR; Log[nM] 3.5): 2%
EGFR % Activity Set1 (EGFR; Log[nM] 4.0): 1%
EGFR % Activity Set2 (EGFR; Log[nM] 4.0): 1%
EGFR % Activity Set3 (EGFR; Log[nM] 4.0): 1%
EGFR % Activity Set1 (EGFR; Log[nM] 4.5): 0%
EGFR % Activity Set2 (EGFR; Log[nM] 4.5): 0%
EGFR % Activity Set3 (EGFR; Log[nM] 4.5): 0%
EGFR % Activity Set1 (EGFR; Log[nM] 5.0): 0%
EGFR % Activity Set2 (EGFR; Log[nM] 5.0): 0%
EGFR % Activity Set3 (EGFR; Log[nM] 5.0): 0%
IC50 (aurora A kinase (AURKA); [3]): 3.43 ± 0.12 µM
IC50 (aurora A kinase (AURKA); [4]): 3.4 µM
Aurora A % Activity Set1 (aurora A kinase (AURKA); Log[nM] 0): 101%
Aurora A % Activity Set2 (aurora A kinase (AURKA); Log[nM] 0): 105%
Aurora A % Activity Set3 (aurora A kinase (AURKA); Log[nM] 0): 95%
Aurora A % Activity Set1 (aurora A kinase (AURKA); Log[nM] 1.0): 100%
Aurora A % Activity Set2 (aurora A kinase (AURKA); Log[nM] 1.0): 102%
Aurora A % Activity Set3 (aurora A kinase (AURKA); Log[nM] 1.0): 97%
Aurora A % Activity Set1 (aurora A kinase (AURKA); Log[nM] 1.5): 97%
Aurora A % Activity Set2 (aurora A kinase (AURKA); Log[nM] 1.5): 100%
Aurora A % Activity Set3 (aurora A kinase (AURKA); Log[nM] 1.5): 97%
Aurora A % Activity Set1 (aurora A kinase (AURKA); Log[nM] 2.0): 96%
Aurora A % Activity Set2 (aurora A kinase (AURKA); Log[nM] 2.0): 101%
Aurora A % Activity Set3 (aurora A kinase (AURKA); Log[nM] 2.0): 105%
Aurora A % Activity Set1 (aurora A kinase (AURKA); Log[nM] 2.5): 89%
Aurora A % Activity Set2 (aurora A kinase (AURKA); Log[nM] 2.5): 95%
Aurora A % Activity Set3 (aurora A kinase (AURKA); Log[nM] 2.5): 95%
Aurora A % Activity Set1 (aurora A kinase (AURKA); Log[nM] 3.0): 89%
Aurora A % Activity Set2 (aurora A kinase (AURKA); Log[nM] 3.0): 91%
Aurora A % Activity Set3 (aurora A kinase (AURKA); Log[nM] 3.0): 92%
Aurora A % Activity Set1 (aurora A kinase (AURKA); Log[nM] 3.5): 48%
Aurora A % Activity Set2 (aurora A kinase (AURKA); Log[nM] 3.5): 50%
Aurora A % Activity Set3 (aurora A kinase (AURKA); Log[nM] 3.5): 53%
Aurora A % Activity Set1 (aurora A kinase (AURKA); Log[nM] 4.0): 17%
Aurora A % Activity Set2 (aurora A kinase (AURKA); Log[nM] 4.0): 17%
Aurora A % Activity Set3 (aurora A kinase (AURKA); Log[nM] 4.0): 17%
Aurora A % Activity Set1 (aurora A kinase (AURKA); Log[nM] 4.5): 7%
Aurora A % Activity Set2 (aurora A kinase (AURKA); Log[nM] 4.5): 8%
Aurora A % Activity Set3 (aurora A kinase (AURKA); Log[nM] 4.5): 8%
Aurora A % Activity Set1 (aurora A kinase (AURKA); Log[nM] 5.0): 4%
Aurora A % Activity Set2 (aurora A kinase (AURKA); Log[nM] 5.0): 4%
Aurora A % Activity Set3 (aurora A kinase (AURKA); Log[nM] 5.0): 3%
Compound: Cc1cccc(Nc2ncnc3[nH]ccc23)c1 [Compound 12, N^4-(3-methylaniline)-7H-pyrrolo[2,3-d]pyrimidin-4-amine]
